Source: US20020001582A1, “Methods and compositions for inhibiting microbial growth” (priority 1999, published 2002)

What was measured:
Sclerotinia homoeocarpa = experiment: Inhibition of Sclerotinia homoeocarpa in potato dextrose broth (area of growth); format: cell-based; settings: 2 weeks after the inoculation
Protocol: Potato dextrose broth was prepared. Fifty ml of the PD broth was added into 100 ml dilution bottles, autoclaved and cooled to room temperature. Various amounts of lysozyme, chitosan, polylysine and avidin were weighed into the bottles. Ten ml of the PD broth with or without the antimicrobials was transferred into sterile petri dishes. A plug of Sclerotinia homoeocarpa (about 6-10 mm square) grown on PD agar was placed into the center of each petri dish. These treatments were all done in triplicates. Fungal growth was monitored by measuring the area of the growth.

[1] = system: Pythium torrulesum (IM193); experiment: Inhibition of Pythium by lysozyme in PD broth, % plate coverage; format: cell-based; settings: for fungal coverage of the plates: end of 2 weeks
Protocol: (§1) Potato dextrose broth was prepared, poured into glass dilution bottles (100 ml each), autoclaved and allowed to cool. […] A fungal square (plug) of each culture was cut and placed in/near the center of each plate. Fungal growth was quantified by measuring the diameter of growth of each fungus while it was growing on the liquid media in each petri dish using a ruler. Each treatment was done in triplicate.
(§2) The experiment was repeated three times (three batches). The observation period for each batch was 2 weeks.
(§3) The fungal growth was expressed in % coverage of the petri dishes by the fungal patches. The calculation can be presented in the following equation:
(§4) Fungal growth (%)=(area of fungal patch/total plate area)×100

[2] = system: Pythium sylvaticom (IM195); experiment: as above; format: cell-based
Protocol: as §1, §2, §3, §4

S. homoeocarpa = experiment: Suppression of fungal disease on young bentgrass, greenhouse trial; format: in vivo
Protocol: (§5) Creeping bentgrass (Agrotis spp.) cv. Penncross was used as the host in the greenhouse trials. This species is widely used in golf greens and is easily managed under greenhouse conditions. Bentgrass was seeded in 6 cm diameter and 5 cm height pots (made from PVC pipes) containing steam sterilized river washed sand. A seeding rate of 0.1 g/pot was used to ensure rapid establishment of a uniform, dense stand. Throughout the experiment, the grass was regularly watered, fertilized and maintained at a cutting height approximately 2.0 cm above the soil surface.
(§6) Virulent isolates of test fungi were grown on a rye grain medium for approximately one week. This medium consisted of 50 g of rye grain, 1 g of CaCO3, and 75 ml of water. It was prepared in a 250 ml Erlenmeyer flask and autoclaved for 30 minutes. Three to five plugs of the actively growing mycelia from week old cultures on potato dextrose agar were transferred into flasks, and incubated in the dark at room temperature.
(§7) Pots of eight-week-old bentgrass were inoculated with the test fungi by placing 2-3 kernels of infected rye in the center of the grass area, just above the soil surface. After inoculation, pots were placed in humidity chambers on a greenhouse bench. Temperature during incubation was maintained at 27-30° C. for disease development and the growth of the test fungi.
(§8) Approximately 1.6-2.4 ml was applied to each pot and the treatment was repeated 24 hours later. Untreated bentgrass was used as a control. All treatments were replicated 8 times and arranged in a completely randomized design. This trial was repeated three times.

G. graminis = experiment: as above; format: in vivo; settings: 5,000 and 10,000 ppm
Protocol: as §5, §6, §7, §8

M. nivale = experiment: as above; format: in vivo, M. nivale on creeping bentgrass (Agrotis spp.) cv. Penncross; settings: 5,000 and 10,000 ppm
Protocol: as §5, §6
as §7, with “fungi. […]” for “fungi.”

[3] = system: Fusarium (IM095, Turfgrass isolate); experiment: Minimum effective treatment concentration, fungal plug in 1/5 potato dextrose broth; format: cell-based
Protocol: (§9) Fungal cultures isolated from turfgrass were collected from different sources including B.C. Ministry of Agriculture, Fisheries and Food and ATCC.
(§10) ⅕ potato dextrose broth was prepared and autoclaved in Erlenmeyer flasks and allowed to cool. Different amounts of egg white lysozyme (Canadian Inovatech, Inc., B.C.) was weighed out and added directly into the flasks. Ten milliliters of broth was dispensed into sterile petri dishes.
(§11) A fungal square (“plug”) of each culture was cut and placed in/near the center of each plate. The petri dishes were then incubated at 22-25° C. During incubation, the petri dishes were evaluated individually by measuring the diameter of fungal growth.

[4] = system: Gaeumannomyces graminis 97-923 (IM100); experiment: as above; format: cell-based
Protocol: as §9, §10, §11

[5] = system: Gaeumannomyces graminis var.avenae (IM084); experiment: as above; format: cell-based
Protocol: as §9, §10, §11

[6] = system: Gaeumannomyces graminis 97-923 (IM099); experiment: as above; format: cell-based
Protocol: as §9, §10, §11

[7] = system: Rhizoctonia solani (IM085); experiment: as above; format: cell-based
Protocol: as §9, §10, §11

[8] = system: Sclerotinia homoeocarpa (IM088); experiment: as above; format: cell-based
Protocol: as §9, §10, §11

Curvularia (Poa) (IM094) = experiment: as above; format: cell-based
Protocol: as §9, §10, §11

[9] = system: Typhula incarnata (IM086); experiment: as above; format: cell-based
Protocol: as §9, §10, §11

Rhizoctonia spp. (IM079) = experiment: as above; format: cell-based
Protocol: as §9, §10, §11

Q: How did the “reduction of fungal growth” value (Sclerotinia homoeocarpa; 1000 ppm) turn out when “lysozyme: type c egg white lysozyme, enzyme of approximately 129 amino acids; commercially available from Canadian Inovatech, Inc.” was run?
A: Its value is 35%.

Q: And the “reduction of fungal growth” value (Sclerotinia homoeocarpa; 2000 ppm)?
A: The value was “about 55%”.

Q: And the “fungal coverage of the plates” value ([1]; 50 ppm)?
A: Its value is 80%.

Q: What about the “fungal coverage of the plates” value ([1]; 100 ppm) of the same substance?
A: Its value is 80%.

Q: What about the “fungal growth compared with 100, 50 or 0 ppm (Tukey test)” value ([1]; 250, 500 or 1000 ppm, p<0.05) of the same substance?
A: Its value is “significantly lower”.

Q: What about the “fungal coverage of the plates” value ([1]; 250 ppm) of the same substance?
A: Its value is 51%.

Q: What about the “fungal coverage of the plates” value ([1]; 500 ppm) of the same substance?
A: The value was 25%.

Q: And the “fungal coverage of the plates” value ([1]; 1000 ppm)?
A: Its value is 14%.

Q: And the “fungal growth (% plate coverage)” value ([2]; 50 ppm)?
A: Its value is 86%.

Q: And the “fungal growth (% plate coverage)” value ([2]; 100 ppm)?
A: Its value is 51%.

Q: What about the “fungal growth compared with 100, 50 or 0 ppm (Tukey test)” value ([2]; 250, 500 or 1000 ppm, p<0.05) of the same substance?
A: The value was “significantly lower”.

Q: And the “fungal growth (% plate coverage)” value ([2]; 250 ppm)?
A: Its value is 15%.

Q: What about the “fungal growth (% plate coverage)” value ([2]; 500 ppm) of the same substance?
A: Its value is 7%.

Q: What about the “fungal growth (% plate coverage)” value ([2]; 1000 ppm) of the same substance?
A: Its value is 6%.

Q: And the “S. homoeocarpa inhibition compared to the untreated control” value (S. homoeocarpa; 2,500, 5,000 and 10,000 ppm sprayed 24 and 48 h after inoculation, day 7, 14 and 21)?
A: The value was “significant S. homoeocarpa inhibition”.

Q: And the “infection compared with bentgrass treated with 2,500 ppm” value (S. homoeocarpa; 5,000 and 10,000 ppm, day 14 and 21 after inoculation)?
A: Its value is “significantly less infection”.

Q: What about the “control against G. graminis” value (G. graminis) of the same substance?
A: Its value is “good control”.

Q: What about the “control against M. nivale” value (M. nivale) of the same substance?
A: The value was “good control”.

Q: And the Comment ([3]; 250 ppm, 25 day)?
A: The Comment was “Excellent”.

Q: What about the “Minimum effective treatment concentration of lysozyme” value ([3]; duration of trial 25 day) of the same substance?
A: Its value is 250 ppm.

Q: And the Comment ([4]; 1000 ppm, 21 day)?
A: Its Comment is “Excellent”.

Q: What about the “Minimum effective treatment concentration of lysozyme” value ([4]; duration of trial 21 day) of the same substance?
A: Its value is 1000 ppm.

Q: What about the Comment ([5]; 500 ppm, 13 day) of the same substance?
A: The Comment was “Excellent”.

Q: What about the “Minimum effective treatment concentration of lysozyme” value ([5]; duration of trial 13 day) of the same substance?
A: The value was 500 ppm.

Q: And the Comment ([6]; 1000 ppm, 21 day)?
A: Its Comment is “Excellent”.

Q: And the “Minimum effective treatment concentration of lysozyme” value ([6]; duration of trial 21 day)?
A: Its value is 1000 ppm.

Q: And the Comment ([7]; 250 ppm, 13 day)?
A: The Comment was “Fair-good”.

Q: What about the “Minimum effective treatment concentration of lysozyme” value ([7]; duration of trial 13 day) of the same substance?
A: The value was 250 ppm.

Q: What about the Comment ([8]; 1000 ppm, 21 day) of the same substance?
A: The Comment was “Fair-good”.

Q: And the “Minimum effective treatment concentration of lysozyme” value ([8]; duration of trial 21 day)?
A: The value was 1000 ppm.

Q: What about the Comment (Curvularia (Poa) (IM094); 1000 ppm, 21 day) of the same substance?
A: Its Comment is “Fair-good”.

Q: And the “Minimum effective treatment concentration of lysozyme” value (Curvularia (Poa) (IM094); duration of trial 21 day)?
A: Its value is 1000 ppm.

Q: What about the Comment ([9]; 1000 ppm, 21 day) of the same substance?
A: Its Comment is “Excellent”.

Q: And the “Minimum effective treatment concentration of lysozyme” value ([9]; duration of trial 21 day)?
A: The value was 1000 ppm.

Q: And the Comment (Rhizoctonia spp. (IM079); 150 ppm, 38 day)?
A: Its Comment is “Excellent”.

Q: And the “Minimum effective treatment concentration of lysozyme” value (Rhizoctonia spp. (IM079); duration of trial 38 day)?
A: The value was 150 ppm.
